Test results: US10517889B2, “Modulators of SMAD7 expression” (Ionis Pharmaceuticals, Inc., priority 2017, dated 2019)
Strand notation (5' to 3'): a small letter for the sugar, then the base; units joined by * are phosphorothioate-linked, units joined directly phosphodiester-linked; [ ] holds rarer units or linkages, { } end groups; capitals alone tell only the bases. k = constrained ethyl (cEt); [5mC] = 5-methylcytosine; d = 2'-deoxy (DNA)

tested on: human SMAD7 mRNA; assay: Antisense inhibition of human SMAD7 mRNA expression in Hep3B cells by 3-10-3 cEt gapmers, 10,000 nM, electroporation (Example 2); assay type: cell-based; conditions: Hep3B cells, 10,000 nM antisense oligonucleotide, electroporation, approximately 24 hours, RT-PCR primer probe set RTS5062, relative to untreated control cells
Procedure, shortened: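 SMAD7 mRNA was measured by real-time PCR (RTS5062) with RiboGreen total-RNA normalization, about 24 h after 10,000 nM gapmer was delivered by electroporation into Hep3B cells at 20,000 per well. Gapmers were 16-mer 3-10-3 cEt, fully phosphorothioate; values are % inhibition versus untreated controls.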

Substance | % Inhibition [%]
800071 (antisense kT*kG*kT*dA*dT*dT*dT*dG*dT*dT*dA*dA*d[5mC]*kA*kA*kA) [compound 800071] | 2
799997 (kA*kT*kG*dA*d[5mC]*d[5mC]*d[5mC]*dA*d[5mC]*dG*dG*dT*dT*kA*kA*kA; antisense) [compound 799997] | 14

same assay, conditions: Hep3B cells, electroporation with 10,000 nM antisense oligonucleotide, approximately 24 hours, RTS5062, percent inhibition of SMAD7 mRNA relative to untreated control cells

Substance | % Inhibition [%]
799592 (kG*kG*kA*dA*dT*dT*dA*dG*dT*dA*dA*dA*dT*k[5mC]*kA*kA; antisense) [compound 799592] | 47
799847 (kT*kT*k[5mC]*d[5mC]*dA*d[5mC]*dT*dA*dT*dT*d[5mC]*dT*dA*kT*kG*kA; antisense) [compound 799847] | 30
799687 (antisense kG*kG*k[5mC]*dA*dG*d[5mC]*dA*dG*dA*d[5mC]*d[5mC]*dA*dT*k[5mC]*kT*kT) [compound 799687] | 35
799763 (antisense kT*kG*kT*d[5mC]*d[5mC]*dT*dA*dA*dA*dG*dA*d[5mC]*dG*kG*k[5mC]*kT) [compound 799763] | 50
799529 (kG*kA*kA*dT*dT*dT*d[5mC]*dT*d[5mC]*dT*dT*dG*d[5mC]*kA*kT*kT; antisense) [compound 799529] | 27
799845 (antisense kG*kA*kA*dG*dT*dA*d[5mC]*d[5mC]*dT*dA*dG*dA*dG*kG*kA*kG) [compound 799845] | 31

same assay, conditions: Hep3B cells, electroporation with 10,000 nM antisense oligonucleotide, approximately 24 hours, SMAD7 mRNA by RT-PCR (RTS5062), relative to untreated control cells

Substance | % Inhibition [%]
799475 (antisense kG*kT*kG*dA*dG*d[5mC]*dT*dG*dG*dG*d[5mC]*dT*dA*kT*kT*k[5mC]) [compound 799475] | 51
800027 (k[5mC]*kG*k[5mC]*dT*dT*dT*dG*d[5mC]*dT*d[5mC]*d[5mC]*d[5mC]*dA*kG*kG*kG; antisense) [compound 800027] | 0
800100 (antisense kT*kG*k[5mC]*dA*dG*dA*dG*d[5mC]*dA*d[5mC]*dA*dG*dA*kT*kG*k[5mC]) [compound 800100] | 16
830176 (antisense kA*kT*kT*d[5mC]*dT*d[5mC]*dA*dA*d[5mC]*dA*dG*dA*d[5mC]*k[5mC]*kA*k[5mC]) [compound 830176] | 61
830084 (kG*kA*kT*dA*d[5mC]*dA*d[5mC]*dT*dT*dA*dA*dT*d[5mC]*kA*kA*kA; antisense) [compound 830084] | 26
799409 (antisense k[5mC]*kT*kA*d[5mC]*d[5mC]*dT*dA*dA*dT*dG*dT*d[5mC]*dA*kA*k[5mC]*kA) [compound 799409] | 34
798861 (kG*kT*kG*dT*dG*dG*d[5mC]*dG*dG*dA*d[5mC]*dT*dT*kG*kA*kT; antisense) [compound 798861] | 24
830200 (antisense kG*kA*kA*dG*dG*d[5mC]*dT*dA*d[5mC]*dA*d[5mC]*d[5mC]*dA*kA*kA*kG) [compound 830200] | 33
798671 (antisense kA*kG*k[5mC]*dG*dG*d[5mC]*dG*dG*d[5mC]*dG*dG*d[5mC]*d[5mC]*k[5mC]*kG*kA) [compound 798671] | 61
830126 (antisense k[5mC]*kT*k[5mC]*d[5mC]*dG*dA*dG*dG*d[5mC]*dA*d[5mC]*d[5mC]*dA*k[5mC]*kA*kT) [compound 830126] | 34
830178 (antisense kA*k[5mC]*kG*dA*d[5mC]*dA*dG*d[5mC]*d[5mC]*dT*dG*dG*dA*kG*kA*k[5mC]) [compound 830178] | 32
798899 (kG*kG*k[5mC]*dA*dG*d[5mC]*dT*dG*d[5mC]*dT*dG*dA*dT*kG*kA*kA; antisense) [compound 798899] | 13
830035 (antisense kA*kT*kT*dG*dG*d[5mC]*dT*dG*dA*dT*d[5mC]*dT*dG*kG*kA*kG) [compound 830035] | 48
830048 (kT*kT*kT*d[5mC]*d[5mC]*dG*dA*dT*dT*dG*dG*d[5mC]*dA*kG*kG*kT; antisense) [compound 830048] | 57

same assay, conditions: Hep3B cells, electroporation with 10,000 nM antisense oligonucleotide, approximately 24 hours, primer probe set RTS5062, relative to untreated control cells

Substance | % Inhibition [%] | % inhibition of SMAD7 mRNA expression [%]
799142 (antisense kG*kG*kG*dT*dT*dA*dT*dG*dA*d[5mC]*dG*dG*dA*k[5mC]*k[5mC]*kA) [compound 799142] | 38 | –
798778 (k[5mC]*kA*k[5mC]*dA*dG*d[5mC]*dA*dA*d[5mC]*dA*d[5mC]*dA*dG*k[5mC]*k[5mC]*kT; antisense) [compound 798778] | – | 64
798966 (antisense kT*kA*k[5mC]*d[5mC]*dT*dG*d[5mC]*d[5mC]*d[5mC]*d[5mC]*dT*dT*d[5mC]*kT*kT*k[5mC]) [compound 798966] | – | 35
798775 (k[5mC]*k[5mC]*kT*d[5mC]*dT*dT*dG*dA*d[5mC]*dT*dT*d[5mC]*d[5mC]*kG*kA*kG; antisense) [compound 798775] | – | 0
798997 (antisense kG*k[5mC]*kA*d[5mC]*dA*d[5mC]*dT*d[5mC]*dA*d[5mC]*dA*d[5mC]*dT*k[5mC]*kA*k[5mC]) [compound 798997] | 12 | –
798933 (antisense kG*k[5mC]*kA*d[5mC]*dT*d[5mC]*dA*dG*dG*dA*dG*dG*dA*kA*kA*kA) [compound 798933] | – | 52
772712 (kA*k[5mC]*k[5mC]*d[5mC]*dA*dT*dA*dG*dA*dA*dA*dA*dA*kA*kA*k[5mC]; antisense) [compound 772712] | – | 0
798947 (antisense kA*k[5mC]*kA*dG*dA*dA*d[5mC]*dA*d[5mC]*dA*dA*dA*d[5mC]*kG*kA*kG) [compound 798947] | – | 52

same assay, conditions: Hep3B cells, electroporation, 10,000 nM antisense oligonucleotide, approximately 24 hours, RTS5062, relative to untreated control cells

Substance | % inhibition of SMAD7 mRNA expression [%]
799721 (antisense kG*kT*kA*dA*d[5mC]*dA*d[5mC]*dA*d[5mC]*dA*dG*d[5mC]*dA*kG*kA*kA) [compound 799721] | 42
799300 (antisense k[5mC]*kA*k[5mC]*dA*dT*dT*d[5mC]*d[5mC]*dA*dA*dA*dA*dG*kG*k[5mC]*kT) [compound 799300] | 28

same assay, conditions: SMAD7 mRNA, Hep3B cells, 10,000 nM antisense oligonucleotide, electroporation, approximately 24 hours, primer probe set RTS5062, relative to untreated control cells

Substance | % Inhibition [%]
801128 (antisense kA*kG*kT*dA*dT*d[5mC]*d[5mC]*dA*dT*d[5mC]*dA*dA*d[5mC]*kT*kG*k[5mC]) [compound 801128] | 48
829754 (antisense kT*k[5mC]*kT*d[5mC]*d[5mC]*d[5mC]*d[5mC]*dG*d[5mC]*dA*dG*d[5mC]*dT*k[5mC]*kG*k[5mC]) [compound 829754] | 49
829768 (antisense kG*k[5mC]*kA*dG*dG*dA*dG*dG*d[5mC]*dA*d[5mC]*dG*d[5mC]*kG*kG*kT) [compound 829768] | 41
772687 (kA*k[5mC]*k[5mC]*dT*dT*dT*dG*dT*dA*dG*dT*dT*dA*kG*kA*kA; antisense) [compound 772687] | 46

same assay, conditions: SMAD7 mRNA, Hep3B cells, electroporation with 10,000 nM antisense oligonucleotide, approximately 24 hours, primer probe set RTS5062, relative to untreated control cells

Substance | % Inhibition [%]
829832 (kT*kG*kA*d[5mC]*d[5mC]*dG*dA*dT*d[5mC]*d[5mC]*d[5mC]*d[5mC]*dA*kG*kG*k[5mC]; antisense) [compound 829832] | 51
829996 (kT*kT*kT*dG*dT*d[5mC]*dT*dT*dA*dG*d[5mC]*dT*dG*kT*kG*kG; antisense) [compound 829996] | 54
829883 (antisense k[5mC]*kA*kG*dG*d[5mC]*dT*dG*dT*dA*d[5mC]*dG*d[5mC]*d[5mC]*kT*kT*k[5mC]) [compound 829883] | 0
